Where two headings read alike, the source gives them in different places.
Assay type: in vivo, male hairless guinea pigs
Settings: for average plasma calcitonin concentration (given in flux units): second hour/steady state
Procedure: This study was undertaken to assess the effect on the transdermal delivery rate by electrotransport of an agent such as calcitonin (sCT), a protein with an affinity for the surfactant Tween 20 at pH 6.5, by delivering the agent in the presence of Tween 20 from a donor gel.
A customized electrotransport system, and its reservoir matrices and contents were prepared as described below. A low level current of 100 μA cm^-2 was maintained throughout each test by a self contained power module (ALZA Corp., Palo Alto, Calif., Code #84166). The peptide agent salmon calcitonin (sCT, UCB-Bioproducts S.A., Chemin du Foriest, Allend, Belgium) was chosen for delivery by electrotransport. The protein calcitonin has a positive net charge at pH 6.5 and was therefore anodically driven from the positive electrode toward the negative electrode. Three gels were prepared for use with the electrotransport system. The anode gel provided the proper environment for the anodic electrochemical reaction. It was comprised of Bio-Rad resin beads (100-200 mesh, chloride form, Bio-Rad Laboratories, Richmond, Calif.) in 48 mM histidine buffer, pH 6.5, and 0.5% hydroxyethyl cellulose (HEC). The cathode gel provided the proper environment for the cathodic electrochemical reaction and completed the electrical circuit. It was comprised of an L-histidine buffered HEC gel, pH 2.9, and sodium chloride. The donor gel occupied a surface area of 2 cm^2 and was separated from the anode compartment by a 1 Kdalton molecular weight (MW) cut-off membrane (Millipore Corp., Bedford, Mass.). The donor gel was prepared by first mixing 48 mM histidine buffer, pH 6.5, with HEC, vortexing vigorously to completely dissolve the HEC and to ensure homogeneous polymerization of the gel. After a few minutes, either a 10% solution of Tween 20 (Pierce, Rockford, Ill.) or water was added in conjunction with a stock solution of calcitonin and gently mixed into the gel. The amounts of each component were calculated to produce a nominal concentration of 1 mM sCT in a 1% HEC gel of 1 mL volume (with or without Tween 20). The gel was slowly rotated and allowed to equilibrate overnight at 4° C. An aliquot of 275-295 μL of donor gel was weighed and placed in the donor reservoir of the electrotransport system immediately prior to beginning each experiment. The 3 gels were contained in 2 separate structures, with each gel compartment being a punched double-sided adhesive foam ring 0.081 cm (0.032") thick with an outside diameter of 3.2 cm (11/4") and an inside diameter of 1.6 cm (5/8"). The compartment ring containing the cathode gel was open on the skin side. The back side was covered by an electrode sandwich consisting of a 3.2 cm (11/4") diameter release liner cover, a 2.2 cm (13/15") diameter punch of electrical conducting adhesive tape, a 11 cm (41/2") silver wire that was slightly coiled at one end, with the coil placed at the center of the electrode leading out, and a 1.6 cm (5/8") diameter punch of AgCl PIB electrode film. The donor gel compartment was also open on the skin side, but the back side was covered by a 2.2 cm (13/15") diameter punch of a 1,000 Dalton MW cut-off membrane. The anode compartment was then stacked on top of the donor compartment and covered with an electrode sandwich identical to the cathode, except that the AgCl PIB electrode film was replaced with a 0.025 mm thick silver (Ag) foil (Johnson Mathey Catalog Co., Ward Hill, Mass.). Both the cathode and the donor compartments also included adhesive washers (In Vivo Metric, Healdsberg, Calif.) with an outside diameter of 3.2 cm (11/4") and an inside diameter of 1.6 cm (5/8") between the skin and the bottom of the compartment to improve skin adhesion. All components of the system were punched out in advance and assembled on the day of the experiment. […]

Salmon Calcitonin [reference compound]
time to approach steady state calcitonin levels (active current groups (1) and (2)): By the second hour | average plasma calcitonin concentration (given in flux units) (active electrotransport 100 μA cm^-2, 1 mM sCT gel pH 6.5, with Tween 20 (group 1)): 5.4 μg sCT cm^-2 h^-1 | average plasma calcitonin concentration (given in flux units) (active electrotransport 100 μA cm^-2, 1 mM sCT gel pH 6.5, without Tween 20 (group 2)): 1.2 μg sCT cm^-2 h^-1 | calcitonin plasma concentration, time course (active electrotransport groups (1) and (2), first hour): increased rapidly | average plasma calcitonin concentration with Tween 20 relative to without Tween 20 (active electrotransport, group 1 vs. group 2, second hour): 3 fold | calcitonin plasma profiles, group (1) with Tween 20 vs group (2) without (statistical comparison) (active electrotransport, p<0.05, ANOVA): significantly different from one another | calcitonin plasma levels, passive systems (passive delivery (control group 3, with and without Tween 20), first 4 hrs.): continued to lack significant calcitonin plasma levels | calcitonin plasma levels, passive systems (passive delivery (no current), first hour): low and remained at or slightly above the limit of detection

Reference: patent US6328728A, “Composition and method for enhancing electrotransport agent delivery” (Alza Corporation, priority 1997, dated 2001)
